The values that follow come from US5424424A, “Tartaric acid derivatives of substituted dibenzoxazepine compounds, pharmaceutical compositions and methods of use” (G. D. Searle & Co., priority 1993, dated 1995).

The test system of experiment [1] is mice. Description: Writhing Assay (phenylbenzoquinone-induced writhing, analgesia). It is filed as in vivo, Charles River male albino mice. Particulars: 30 mg per kilogram, intragastric, 30 minutes before PBQ i.p.; analgesia = writhes equal to or less than one-half the median of saline control. From the text: The Writhing Assay is one of the most widely-used experimental procedures for measuring the analgesic activity of different narcotic and nonnarcotic analgesic agents, and involves the continuous, chemically-induced pain of visceral origin to an animal, such as a mouse or rat. [Gyires et al., Arch. int. Pharmacodyn, 267, 131-140 (984); C. Vander Wende et al., Fed. Proc., 15, 494 (1956); Koster et al., Fed. Proc., 18, 412 (1959); and Witken et al., J. Pharmacol. exp. Ther., 133, 400-408 (1961).] Chemicals which may be used to induce this pain include phenylbenzoquinone (PBQ) and acetic acid. As a result of the chemical irritation to the animal, a characteristic stretching and writhing of the animal (dorsiflexion of the animal's back, extension of its hindlimbs and the strong contraction of its abdominal musculature) will generally occur. […] Drugs which reduce the number of writhes of the animal appear to restore the normal nociceptive threshold of the animal.
Charles River male albino mice, weighing 20 to 30 grams, were used in this assay.
Thirty minutes after intragastric administration to ten mice of 30 mg per kilogram of body weight of a compound of the present invention ("test compound"), […] per 10 g of body weight of a 0.025% w/v solution of PB was injected intraperitoneally into each mouse. Ten mice which were given saline in place of a test compound of the invention were used as a control group.
Five minutes later, each mouse was individually placed into a glass beaker for observation, and the number of writhes occurring during the following ten-minute period was counted.
A test compound was considered to have produced analgesia in a mouse if, in accordance with the conditions set forth above, and under the test criteria employed for this assay, after the administration of 30 mg per kilogram of body weight of a compound of the present invention to the mouse, the number of writhes elicited by a mouse injected with PBQ was equal to, or less than, one-half the median number of writhes recorded for the saline-treated control group of mice that day, as described by Taber in "Predictive Value of Analgesic Assays in Mice and Rats," Advances in Biochemical Psychopharmacology, 8, 191 (1974).
The results for the particular compounds of the present invention analyzed in this assay, and discussed in the examples identified below which correspond thereto, are presented in Table 1 hereinbelow as fractions under the heading "WRITHING ASSAY." The fractions indicate the number of mice out of ten in which a test compound produced analgesia.

The subject of experiment [2] is prostaglandin E2-induced contractions of segments of guinea pig ileum. Put plainly: Prostaglandin (PGE) Antagonism Assay in guinea pig ileum. It is filed as tissue-based, Male albino guinea pigs. To be noted: dose ratio of prostaglandin E2 EC50 values; initial concentration 3 micromolar test compound, 37° C., incubated thirty minutes. On the procedure:
In order to determine the effectiveness of several of the compounds of the present invention ("test compounds") as prostaglandin E2 antagonists,a prostaglandin antagonism assay was conducted, as described below, to determine the ability of these compounds to inhibit prostaglandin E2 -induced contractions of segments of guinea pig ileum.
Male albino guinea pigs weighing 200 to 500 grams were sacrificed by cervical dislocation. The ilea were then quickly removed from the guinea pigs and placed in a modified Tyrode solution, a solution which is known to those skilled in the art, containing one-half of the usual amount of magnesium ions.
Segments of ileum about 2 cm long were then cut and mounted in a 10 mL tissue bath containing the modified Tyrode solution. The solution was maintained at 37° C. and aerated with a gaseous mixture of 95% oxygen and 5% carbon dioxide. Data for a control prostaglandin E2 dose response curve plotting concentration of prostaglandin E2 versus the intensity of contractions, detected isotonically, was then obtained by experimentally adjusting the dose of the prostaglandin E2 being injected into the tissue bath, in a manner known by those of skill in the art.
Solutions or suspensions containing an initial concentration (3 micromolar) of a test compound in modified Tyrode solution ("test solutions/suspensions") were then separately substituted for the control bath solution. Each test solution/suspension was then kept in constant contact with the ileum tissue, except for brief periods to drain the bath in preparation for rinsing with fresh test solution/suspension. A second prostaglandin E2 dose response curve was then generated for prostaglandin E2 in the presence of a test compound.
A control dose response curve is produced in isolated segments of guinea pig ileum mounted in an automated apparatus with six concentrations of prostaglandin E2. A solution or suspension of test compound is substituted for the control bathing solution and is incubated for thirty minutes. An additional prostaglandin E2 dose response curve is then performed in the presence of the test compound. A dose ratio is calculated from the EC50 values obtained from duplicate replications on each concentration of the test compound.
A dose ratio of EC50 doses was calculated from the results of each test in a manner known by those of skill in the art, and described above.
The compounds of the present invention which were tested in this assay, and for which results are presented in Table 1, correspond to the particular examples specified in Table 1.

The structures appear in SMILES notation. Counter-ions that a name gives are not always drawn.

On to `CC(=O)O[C@H](C(=O)NCCN(C)C)[C@H](OC(C)=O)C(=O)N1Cc2ccccc2Oc2ccc(Cl)cc21` [Example 2, αS,βS-Bis(acetyloxy)-8-chloro-N-[2-(dimethylamino)ethyl]-γ-oxodibenz[b,f][1,4]oxazepine-10(11H)-butanamide, monohydrochloride], for which, in experiment [1], the “WRITHING ASSAY I.G.: number of mice out of ten in which a test compound produced analgesia” value (“WRITHING ASSAY I.G.: number” for short) is reported as 0/10.

For `CC(=O)O[C@H](C(=O)NCc1ccncc1)[C@H](OC(C)=O)C(=O)N1Cc2ccccc2Oc2ccc(Cl)cc21` [Example 3, αS,βS-Bis(acetyloxy)-8-chloro-γ-oxo-N-(4-pyridinylmethyl)-dibenz[b,f][1,4]oxazepine-10(11H)-butanamide, hydrochloride], the “WRITHING ASSAY I.G.: number” value in experiment [1] is on record as 5/10. The “PGE ANTAGONISM IN GUINEA PIG ILEUM Dose Ratio” value in experiment [2] amounted to 1.3. For the molecule `CC(=O)O[C@H](C(=O)NCc1cccnc1)[C@H](OC(C)=O)C(=O)N1Cc2ccccc2Oc2ccc(Cl)cc21` [Example 4, αS,βS-Bis(acetyloxy)-8-chloro-γ-oxo-N-(3-pyridinylmethyl)-dibenz[b,f][1,4]oxazepine-10(11H)-butanamide, hydrochloride], in experiment [1], the “WRITHING ASSAY I.G.: number” value was 9/10. In experiment [2], the “PGE ANTAGONISM IN GUINEA PIG ILEUM Dose Ratio” value is listed as 0.74.

Turning to `CC(=O)O[C@H](C(=O)NCc1ccccn1)[C@H](OC(C)=O)C(=O)N1Cc2ccccc2Oc2ccc(Cl)cc21` [Example 5, αS,βS-Bis(acetyloxy)-8-chloro-γ-oxo-N-(2-pyridinylmethyl)dibenz[b,f][1,4]oxazepine-10(11H)-butanamide, hydrochloride], the “WRITHING ASSAY I.G.: number” value in experiment [1] was 5/10. For the same molecule, the “PGE ANTAGONISM IN GUINEA PIG ILEUM Dose Ratio” value in experiment [2] came out at 1.7. `CC(=O)O[C@@H](C(=O)NCc1ccncc1)[C@@H](OC(C)=O)C(=O)N1Cc2ccccc2Oc2ccc(Cl)cc21` [Example 7, αR,βR-Bis(acetyloxy)-8-chloro-γ-oxo-N-(4-pyridinylmethyl)dibenz[b,f][1,4]oxazepine-10(11H)-butanamide, hydrochloride]: the “WRITHING ASSAY I.G.: number” value in experiment [1] is 8/10. Besides, in experiment [2], the “PGE ANTAGONISM IN GUINEA PIG ILEUM Dose Ratio” value is recorded as 1.2. As for `CC(=O)O[C@@H](C(=O)NCc1cccnc1)[C@@H](OC(C)=O)C(=O)N1Cc2ccccc2Oc2ccc(Cl)cc21` [Example 8, αR,βR-Bis(acetyloxy)-8-chloro-γ-oxo-N-(3-pyridinylmethyl)dibenz[b,f][1,4]oxazepine-10(11H)]-butanamide, hydrochloride], in experiment [1], the “WRITHING ASSAY I.G.: number” value is 6/10. The “PGE ANTAGONISM IN GUINEA PIG ILEUM Dose Ratio” value in experiment [2] came out at 2.4.

As to `CC(=O)O[C@@H](C(=O)NCc1ccccn1)[C@@H](OC(C)=O)C(=O)N1Cc2ccccc2Oc2ccc(Cl)cc21` [Example 9, αR,βR-Bis(acetyloxy)-8-chloro-γ-oxo-N-(2-pyridinylmethyl)dibenz[b,f][1,4]oxazepine-10(11H)-butanamide, hydrochloride], the “WRITHING ASSAY I.G.: number” value in experiment [1] is recorded as 5/10. In addition, in experiment [2], the “PGE ANTAGONISM IN GUINEA PIG ILEUM Dose Ratio” value is given as 1.1.
